{"source": "patent US20090036426A1", "about": "(AMPLA Pharmaceuticals Inc., priority 2007, published 2009)", "key": {"CB1 receptor [1]": {"biological_target": "T1, CB1 receptor (Homo sapiens, UniProt P21554)", "T1 sequence (P21554 whole entry)": "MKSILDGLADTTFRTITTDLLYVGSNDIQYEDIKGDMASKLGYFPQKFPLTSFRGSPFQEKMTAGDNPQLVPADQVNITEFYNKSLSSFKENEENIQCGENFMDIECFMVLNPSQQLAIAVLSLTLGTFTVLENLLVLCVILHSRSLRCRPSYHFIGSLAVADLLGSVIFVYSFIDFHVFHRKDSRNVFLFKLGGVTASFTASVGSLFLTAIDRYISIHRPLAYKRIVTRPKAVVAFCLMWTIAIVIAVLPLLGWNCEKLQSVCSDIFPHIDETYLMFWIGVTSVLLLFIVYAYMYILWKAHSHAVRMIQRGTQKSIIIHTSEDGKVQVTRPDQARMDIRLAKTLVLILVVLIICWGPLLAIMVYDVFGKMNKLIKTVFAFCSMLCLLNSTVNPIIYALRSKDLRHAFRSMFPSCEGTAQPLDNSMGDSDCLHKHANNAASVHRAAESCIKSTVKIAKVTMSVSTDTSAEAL", "experiment": "Functional activity versus the CB1 receptor (statement, no method)"}, "[2]": {"experiment": "Body weight of diet-induced obese mice, repeated oral administration (Example 2)", "format": "in vivo, male C57BL/6J mice", "conditions": "for reduction of body weight: dosed for 28 days, DIO mice, FIG. 8", "description": "Sixty-five C57BL/6J mice (7-8 weeks of age) were ordered from Charles River, Margate, Kent. Mice were group housed in polypropylene cages with free access to a high fat diet (D12451 45% of Kcal derived from fat; Research Diets, New Jersey, USA) and tap water at all times. Animals were maintained at 21±4° C. and 55±20% humidity on a normal phase 12 h light-dark cycle (lights on 04:30 h)\nBody weight and food and water intake were recorded daily. Following drug administration the animals were examined and any overt behaviour was recorded. For all dosing, the morning session was timed such that approximately half the mice were dosed at the time of lights out (09:30).\nThe test compounds were dissolved in 1% methylcellulose. Drugs were made up fresh each day 1-2 h before dosing and were administered using a dose volume in the range of 1-3 ml/kg. Drug doses were expressed as free base.\nP<0.05 was considered to be statistically significant. Daily food and water intake data was analysed by ANOVA."}, "[3]": {"experiment": "Acute administration: wet mash and food intake and 24 h body weight in lean mice (Example 3)", "format": "in vivo, male C57BL/6J mice", "conditions": "dosed orally at 10 mg/kg, one-way ANOVA"}, "[4]": {"experiment": "Body weight of diet-induced obese mice, chronic administration of Treatment E (Example 4)"}, "CB2 receptor": {"biological_target": "T2, CB2 receptor (Homo sapiens, UniProt P34972)", "T2 construct": "host or cells: CB2 receptor bearing cells (host line not described)", "T2 sequence (P34972 whole entry)": "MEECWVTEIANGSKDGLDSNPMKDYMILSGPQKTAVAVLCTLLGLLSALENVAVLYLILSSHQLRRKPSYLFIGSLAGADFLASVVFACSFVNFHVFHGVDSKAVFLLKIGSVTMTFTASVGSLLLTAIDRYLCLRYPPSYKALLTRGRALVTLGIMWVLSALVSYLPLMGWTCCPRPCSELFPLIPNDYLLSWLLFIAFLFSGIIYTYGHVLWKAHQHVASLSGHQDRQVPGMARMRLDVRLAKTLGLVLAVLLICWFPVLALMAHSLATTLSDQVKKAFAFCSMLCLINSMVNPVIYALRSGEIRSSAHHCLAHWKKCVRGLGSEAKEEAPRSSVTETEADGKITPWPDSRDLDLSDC", "experiment": "Ca2+i response to 2-AG dose-response in CB2 receptor bearing cells with or without compound", "format": "cell-based", "conditions": "2-AG with or without compound, FIG. 2"}, "[5]": {"biological_target": "T3, Human Cannabinoid 1 (CB1) receptor (Homo sapiens, UniProt P21554)", "T3 construct": "expressed in transfected cells; host or cells: CHO cells stably expressing the GqΔGi chimera; clonal CB1 line", "T3 sequence (P21554 whole entry)": "as the sequence (P21554 whole entry) above", "experiment": "Ca2+i response to 2-AG dose-response in CB1 cells with or without compound (DSIS flow cytometry)", "format": "cell-based", "conditions": "2-AG with or without compound, FIG. 2", "source_text": "cDNA for the G protein GqΔGi chimera was generated by PCR and inserted into the polylinker region of the pcDNA3/hygro+ vector (Invitrogen). Stable expression of GqΔGi chimera protein in CHO cell line was generated under hygromycin selection. Human Cannabinoid 1 (CB1) cDNA was inserted into the polylinker region of the pcDNA3.1/(+) vector (Invitrogen) and DNA was introduced into the GqΔGi/CHO cell line by Lipofectamine reagent (Invitrogen). Cell lines stably expressing the CB receptor with GqΔGi chimera protein were generated by double selection with hygromycin and G418 (Coward, P., et al. 1999. Chimeric G proteins allow a high-throughput signaling assay of Gi-coupled receptors. Anal Biochem. 270:242-8).\nCB1 Cells were plated 24-48 hours in advance, and were harvested with trypsin at ˜80% confluency. Cells were then centrifuged and resuspended two times in Hybridoma Media, the final time at a concentration of 1×10^6 cells/mL. Two μM of Indo-1 were added and cells were incubated for 1 hour on a rotator at room temperature. […]\nThe probe-loaded CB1 and Control cell mixture was placed in the Cell Suspension System on the DSIS where they were continuously rocked to keep them in a suspended state. […] The DSIS software, NVS Sampler, recorded a timing file and the CyAn software, Summit, recorded a data file. […]"}, "CB1 receptor [6]": {"biological_target": "T1, CB1 receptor", "experiment": "Competition ligand binding assay, CHO-k1 cell membranes", "parameters": "expressed in transfected cells; host or cells: CHO-k1 cell membranes", "conditions": "0.75 nM radioligand, FIG. 6", "description": "(§1) Competition ligand binding assays were performed with the non-selective cannabinoid receptor agonist ([^3H]CP 55,940) (0.75 nM) in the binding buffer containing 50 mM Tris-HCl, pH 7.4, 3 mM MgCl2, 1 mM EDTA, 0.2% BSA using CHO-k1 cell membranes stably expressing human CB1 receptors or mouse brain membrane preparations in 96-well plate format. The receptor membranes (10 μg/well) were pre-incubated with different concentrations of tested compounds in the binding buffer at room temperature for 30 min prior to addition of 0.75 nM [^3H]CP 55,940 in a final volume of 100 μl. The binding was carried out at room temperature for another 2 h. To determine the non-specific binding, experiments were also performed in the presence of 10 μM unlabeled CP 55,940. Binding was terminated by addition of cold binding buffer and filtrated on Whatman GF/B glass-fiber filters using a sampling manifold. The filters were washed 6 times with cold binding buffer and air-dried overnight. The radioactivity was quantitated on a TopCounter (PerkinElmer) after adding scintillation fluid. Specific binding was defined as the difference between the binding in the presence and absence of 10 μM unlabeled CP 55, 940."}, "CB1 receptor [7]": {"biological_target": "T1, CB1 receptor", "experiment": "Dissociation kinetics assay with [3H]CP 55,940 on CHO-k1 cell membranes", "format": "binding", "parameters": "expressed in transfected cells; host or cells: CHO-k1 cell membranes", "conditions": "0.75 nM [3H]CP 55,940, room temperature, FIG. 3", "description": "Dissociation kinetics assays were performed with the non-selective cannabinoid receptor agonist ([^3H]CP 55,940) (0.75 nM) in the binding buffer containing 50 mM Tris-HCl, pH 7.4, 3 mM MgCl2, 1 mM EDTA, 0.2% BSA using CHO-k1 cell membranes stably expressing human CB1 receptors in 96-well plate format. The CB1 receptor membranes (10 μg/well) were incubated with 0.75 nM [^3H]CP 55,940 in 100 μl binding buffer at room temperature for 2 h. Dissociation was initiated with addition of 100 μl unlabeled CP 55,940 (10 μM) in binding buffer in the absence or presence of different concentrations of compounds (compound 7). Dissociation was carried out at room temperature for indicated time. To determine the non-specific binding, experiments were also performed in the presence of 10 μM unlabeled CP 55,940. Binding was terminated by addition of cold binding buffer and filtrated on Whatman GF/B glass-fiber filters using a sampling manifold. The filters were washed 6 times with cold binding buffer and air-dried overnight. The radioactivity was quantitated on a TopCounter (PerkinElmer) after adding scintillation fluid. Specific binding was defined as the difference between the binding in the presence and absence of 10 μM unlabeled CP 55,940."}, "CB1 receptor [8]": {"biological_target": "T1, CB1 receptor", "experiment": "[35S]GTPγS binding assay on CHO-k1 cell membranes", "format": "biochemical", "parameters": "expressed in transfected cells; host or cells: CHO-k1 cell membranes", "description": "[^35S]GTPγS binding assays were performed with CHO-k1 cell membranes stably expressing human CB1 receptors in 96-well ScintiPlate (PerkinElmer). The membranes (12.5 μg/well) were preincubated with compound 7 in the binding buffer (50 mM Tris-HCl, pH 7.4, 100 mM NaCl, 3 mM MgCl2, 0.2 mM EDTA, 0.2% BSA and 10 μM GDP) at 30° C. for 30 min, then added various concentrations of agonists (WIN 55212-2 or CP 55,940) and [^35S]GTPγS (0.2 nM) in a final volume of 200 μl. Reactions were carried out at 30° C. for 60 min, followed by centrifugation of plate at […] for 15 min. After removing supernatant, the radioactivity was quantitated on a TopCounter."}, "[9]": {"biological_target": "T4, mouse CB1 (mouse brain membrane) (Mus musculus, UniProt P47746)", "T4 construct": "or mouse brain membrane preparations in 96-well plate format; from tissue; host or cells: mouse brain membranes", "T4 sequence (P47746 whole entry)": "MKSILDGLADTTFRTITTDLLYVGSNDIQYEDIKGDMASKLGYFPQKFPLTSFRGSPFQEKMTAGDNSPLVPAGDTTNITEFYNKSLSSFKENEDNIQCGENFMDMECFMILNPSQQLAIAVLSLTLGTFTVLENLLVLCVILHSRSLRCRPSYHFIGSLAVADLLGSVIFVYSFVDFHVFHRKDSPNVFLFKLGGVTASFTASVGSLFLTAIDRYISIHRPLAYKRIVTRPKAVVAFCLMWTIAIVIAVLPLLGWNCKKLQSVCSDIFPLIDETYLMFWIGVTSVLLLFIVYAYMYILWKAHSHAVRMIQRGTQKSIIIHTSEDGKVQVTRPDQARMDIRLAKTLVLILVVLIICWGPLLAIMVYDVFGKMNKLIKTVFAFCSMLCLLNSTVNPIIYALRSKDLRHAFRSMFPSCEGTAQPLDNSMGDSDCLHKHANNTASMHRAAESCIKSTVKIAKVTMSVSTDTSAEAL", "experiment": "Competition ligand binding assay, mouse brain membrane preparations", "description": "as §1"}}, "data": [{"smiles": "NCCC(Oc1ccc(C(F)(F)F)cc1)c1ccccc1", "note": "(racemic) [racemate of norfluoxetine, 3-(4-trifluoromethylphenoxy)-3-phenylpropylamine]", "values": [{"measurement": "functional activity versus the CB1 receptor", "setting": "CB1 receptor [1]", "result": "antagonist"}]}, {"smiles": "CC(C)CC(N(C)C)C1(c2ccc(Cl)cc2)CCC1", "note": "(centres unmarked) [sibutramine]", "values": [{"measurement": "reduction of body weight", "setting": "[2]; 20 mg/kg po", "result": 2, "unit": "%"}]}, {"smiles": "Cc1c(C(=O)NN2CCCCC2)nn(-c2ccc(Cl)cc2Cl)c1-c1ccc(Cl)cc1", "note": "[rimonabant]", "values": [{"measurement": "24 hour body weight change versus vehicle", "setting": "[3]", "result": "No significant differences"}, {"measurement": "body weight versus vehicle", "setting": "[3]", "result": "No significant differences"}, {"measurement": "daily food intake versus vehicle", "setting": "[3]", "result": "No significant differences"}, {"measurement": "reduction of body weight", "setting": "[2]; 10 mg/kg po", "result": 15, "unit": "%"}, {"measurement": "weight reduction as compared to vehicle on day 29 (Dunnett's test)", "setting": "[2]; 10 mg/kg po, p<0.001, DIO mice", "result": "statistically significant weight reduction"}, {"measurement": "reduction in body weight", "setting": "[4]; 10 mg/kg orally, chronic administration, DIO mice, FIG. 22", "result": 15, "unit": "%"}, {"measurement": "weight reduction as compared to vehicle on day 29 (Dunnett's test)", "setting": "[4]; dosed orally at 10 mg/kg, p<0.001", "result": "statistically significant weight reduction"}]}, {"smiles": "CNCC[C@H](Oc1ccc(C(F)(F)F)cc1)c1ccccc1", "note": "[(S)-Fluoxetine]", "values": [{"measurement": "functional activity versus the CB1 receptor", "setting": "CB1 receptor [1]", "result": "inverse agonist"}]}, {"smiles": "Fc1ccc(C(OCCCc2c[nH]cn2)c2ccc(F)cc2)cc1", "note": "[compound 7]", "values": [{"measurement": "effect on the 2-AG dose response (Ca2+i)", "setting": "CB2 receptor", "result": "No effect"}, {"measurement": "effect on the 2-AG dose response (Ca2+i)", "setting": "[5]", "result": "right shift"}, {"measurement": "inhibition of binding of [3H]CP 55,940", "setting": "CB1 receptor [6]", "result": "partially inhibited"}, {"measurement": "effect on the dissociation rate of [3H]CP 55,940", "setting": "CB1 receptor [7]", "result": "no effect"}, {"measurement": "pA2 estimation using CP 55940 as an agonist", "setting": "CB1 receptor [8]; CB1 cell line, FIG. 4", "result": "did not support an allosteric effect"}, {"measurement": "[35S]GTPγS binding: antagonist versus inverse agonist activity", "setting": "CB1 receptor [8]; response dropped below basal levels, FIG. 5", "result": "inverse agonist activity"}, {"measurement": "inhibition of agonist (CP 55940) binding", "setting": "[9]; mouse brain membrane, FIG. 7", "result": "inhibited"}, {"measurement": "inhibition of antagonist/inverse agonist (SR 141716) binding", "setting": "[9]; mouse brain membrane, FIG. 7", "result": "inhibited"}, {"measurement": "inhibition of binding of [3H]CP 55,940", "setting": "[9]; mouse brain membranes, 0.75 nM radioligand, FIG. 6", "result": "almost fully inhibited"}]}, {"smiles": "CNCC[C@@H](Oc1ccc(C(F)(F)F)cc1)c1ccccc1", "note": "[(R)-fluoxetine]", "values": [{"measurement": "functional activity versus the CB1 receptor", "setting": "CB1 receptor [1]", "result": "antagonist"}]}]}
